Tested on: α-synuclein cytotoxicity in M17-SYNwt cells
Assay: α-synuclein cytotoxicity assay: LDH leakage from paraquat-treated M17-SYNwt neuroblastoma cells;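 further: paraquat at 32 mM co-added with compound, 40 h exposure, LDH activity released into the culture medium measured, references are DMSO-only cells and paraquat plus DMSO cells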
Conditions: Homo sapiens, Neuroblastoma cell; for Emax: read-out: % Inhib.

Structure (SMILES) | EC50 | Emax
Cc1ccc(Cc2nsc(N3CCN(S(=O)(=O)c4c(C)cc(C)cc4C)CC3)n2)cc1 [compound 37, 1-[2,4,6-trimethylphenylsulfonyl]-4-[3-(4-methylbenzyl)-1,2,4-thiadiazol-5-yl]piperazine] | 73.1 nM | 48%
CC1CN(c2nc(Cc3ccc(Cl)cc3)ns2)CCN1C(=O)c1cccc(F)c1 (stereo not drawn) [compound 125, 1-(3-fluorobenzoyl)-4-[3-(4-chlorobenzyl)-1,2,4-thiadiazol-5-yl]-2-methylpiperazine] | 160 nM | 68%
Cc1ccc(Cc2nsc(N3CCN(C(=O)Cc4ccc(F)cc4)C(C)C3)n2)cc1 (stereo not drawn) [compound 3, 1-(4-fluorophenylacetyl)-4-[3-(4-methylbenzyl)-1,2,4-thiadiazol-5-yl]-2-methylpiperazine] | 2200 nM | 76%
COc1ccc(S(=O)(=O)NCCCNc2nc(Cc3cccc(OC)c3)ns2)cc1 [compound 211, N-[4-methoxyphenylsulfonyl]-N′-[3-(3-methoxybenzyl)-1,2,4-thiadiazol-5-yl]-propane-1,3-diamine] | 367 nM | 100%
O=S(=O)(c1ccccc1)N1CCN(c2nc(Cc3ccc(F)cc3)ns2)CC1 [compound 198, 1-phenylsulfonyl-4-[3-(4-fluoro-benzyl)-1,2,4-thiadiazol-5-yl]piperazine] | 349 nM | 25%
CC1CN(c2nc(Cc3ccc(Cl)cc3)ns2)CCN1C(=O)/C=C/c1ccccc1 (stereo not drawn) [compound 86, 1-[(2E)-3-phenylprop-2-enoyl]-4-[3-(4-chlorobenzyl)-1,2,4-thiadiazol-5-yl]2-methylpiperazine] | 1130 nM | 81%
CC1CN(c2nc(Cc3ccc(F)cc3)ns2)CCN1C(=O)CCc1ccccc1 (stereo not drawn) [compound 89, 1-(3-phenylpropanoyl)-4-[3-(4-fluorobenzyl)-1,2,4-thiadiazol-5-yl]-2-methylpiperazine] | 600 nM | 86%
Cc1ccc(S(=O)(=O)N2CCN(c3nc(Cc4ccc(Cl)cc4)ns3)CC2)cc1 [compound 63, 1-[4-methylphenylsulfonyl]-4-[3-(4-chlorobenzyl)-1,2,4-thiadiazol-5-yl]piperazine] | 80.7 nM | 83%
Cc1ccc(Cc2nsc(N3CCN(C/C=C/c4ccccc4)CC3)n2)cc1 [compound 91, 1-[3-phenylprop-2-enyl]-4-[3-(4-methylbenzyl)-1,2,4-thiadiazol-5-yl]piperazine] | 710 nM | 90%
CCc1ccccc1NC(=O)N1CCN(c2nc(Cc3ccc(F)cc3)ns2)CC1C (stereo not drawn) [compound 12, N-(2-ethylphenyl)-4-[3-(4-fluorobenzyl)-1,2,4-thiadiazol-5-yl]-2-methylpiperazine-1-carboxamide] | 890 nM | 92%
Cc1ccc(Cc2nsc(N3CCN(C(=O)c4ccccc4F)C(C)C3)n2)cc1 (stereo not drawn) [compound 149, 1-(2-fluorobenzoyl)-4-[3-(4-methylbenzyl)-1,2,4-thiadiazol-5-yl]-2-methylpiperazine] | 980 nM | 105%
COc1cccc(Cc2nsc(N3CCN(C(=O)c4ccc(Cl)cc4)C(C)C3)n2)c1 (stereo not drawn) [compound 174, 1-(4-chlorobenzoyl)-4-[3-(3-methoxybenzyl)-1,2,4-thiadiazol-5-yl]-2-methylpiperazine] | – | 83%
CCCCc1ccc(C(=O)N2CCN(c3nc(Cc4ccc(C)cc4)ns3)CC2C)cc1 (stereo not drawn) [compound 117, 1-(4-butylbenzoyl)-4-[3-(4-methylbenzyl)-1,2,4-thiadiazol-5-yl]-2-methylpiperazine] | 84.1 nM | 82%
Cc1ccc(Cc2nsc(N3CCN(C(=O)c4ccccc4F)CC3)n2)cc1 [compound 175, 1-(2-fluorobenzoyl)-4-[3-(4-methylbenzyl)-1,2,4-thiadiazol-5-yl]piperazine] | – | 78%
O=C(Nc1cccc(F)c1)N1CCN(c2nc(Cc3ccc(F)cc3)ns2)CC1 [compound 9, N-(3-fluorophenyl)-4-[3-(4-fluorobenzyl)-1,2,4-thiadiazol-5-yl]piperazine-1-carboxamide] | 520 nM | 53%
Cc1ccccc1NC(=O)N1CCN(c2nc(Cc3ccc(F)cc3)ns2)CC1C (stereo not drawn) [compound 10, N-(2-methylphenyl)-4-[3-(4-fluorobenzyl)-1,2,4-thiadiazol-5-yl]-2-methylpiperazine-1-carboxamide] | 600 nM | 72%
COc1ccc(S(=O)(=O)N2CCN(c3nc(Cc4ccc(C)cc4)ns3)CC2C)cc1 (stereo not drawn) [compound 60, 1-[4-methoxyphenylsulfonyl]-4-[3-(4-methylbenzyl)-1,2,4-thiadiazol-5-yl]-2-methylpiperazine] | 0.033 nM | 93%
CCc1ccc(C(=O)NCCN2CCN(c3nc(Cc4ccc(F)cc4)ns3)CC2)cc1 [compound 103, 4-ethyl-N-{2-[4-[3-(4-fluorobenzyl)-1,2,4-thiadiazol-5-yl]piperazin-1-yl]ethyl}benzamide] | 2320 nM | 139%
Cc1ccc(Cc2nsc(N3CCN(C(=O)c4ccc(F)cc4)C(C)C3)n2)cc1 (stereo not drawn) [compound 151, 1-(4-fluorobenzoyl)-4-[3-(4-methylbenzyl)-1,2,4-thiadiazol-5-yl]-2-methylpiperazine] | 1140 nM | 73%

Structure (SMILES) | EC50 | Emax
CCOc1ccccc1N1CCN(c2nc(Cc3ccc(F)cc3)ns2)CC1 [compound 186, 1-(2-ethoxyphenyl)-4-[3-(4-fluorobenzyl)-1,2,4-thiadiazol-5-yl]piperazine] | 2050 nM | 94%
COc1cccc(Cc2nsc(N3CCN(C(=O)c4ccc(C)cc4)C(C)C3)n2)c1 (stereo not drawn) [compound 124, 1-(4-methylbenzoyl)-4-[3-(3-methoxybenzyl)-1,2,4-thiadiazol-5-yl]-2-methylpiperazine] | 140 nM | 57%
COc1ccccc1C(=O)N1CCN(c2nc(Cc3ccc(F)cc3)ns2)CC1C (stereo not drawn) [compound 133, 1-(2-methoxybenzoyl)-4-[3-(4-fluorobenzyl)-1,2,4-thiadiazol-5-yl]-2-methylpiperazine] | 290 nM | 118%
O=C(CCc1ccccc1)N1CCN(c2nc(Cc3ccc(F)cc3)ns2)CC1 [compound 90, 1-(3-phenylpropanoyl)-4-[3-(4-fluorobenzyl)-1,2,4-thiadiazol-5-yl]piperazine] | 1410 nM | 73%
O=C(NCCN1CCN(c2nc(Cc3ccc(Cl)cc3)ns2)CC1)c1cccc(F)c1 [compound 100, 3-fluoro-N-{2-[4-[3-(4-chlorobenzyl)-1,2,4-thiadiazol-5-yl]piperazin-1-yl]ethyl}benzamide] | 1790 nM | 75%
COc1ccc(S(=O)(=O)NCCNc2nc(Cc3cccc(OC)c3)ns2)cc1 [compound 209, 1-N-[4-methoxyphenylsulfonyl]-N′-[3-(3-methoxybenzyl)-1,2,4-thiadiazol-5-yl]-ethane-1,2-diamine] | 317 nM | 100%
Cc1ccc(Cc2nsc(N3CCN(S(=O)(=O)c4cccc5ccccc45)CC3)n2)cc1 [compound 35, 1-[1-naphtylsulfonyl]-4-[3-(4-methylbenzyl)-1,2,4-thiadiazol-5-yl]piperazine] | 47.2 nM | 47%
O=C(NCCN1CCN(c2nc(Cc3ccccc3)ns2)CC1)c1cccc(F)c1 [compound 106, 3-fluoro-N-{2-[4-[3-benzyl-1,2,4-thiadiazol-5-yl]piperazin-1-yl]ethyl}benzamide] | – | 49%
COc1ccccc1S(=O)(=O)N1CCN(c2nc(Cc3ccc(F)cc3)ns2)CC1 [compound 195] | 56.7 nM | 99%
Fc1ccc(Cc2nsc(N3CCN(C/C=C/c4ccccc4)CC3)n2)cc1 [compound 93, 1-[3-phenylprop-2-enyl]-4-[3-(4-fluorobenzyl)-1,2,4-thiadiazol-5-yl]piperazine] | 1990 nM | 91%
CC1CN(c2nc(Cc3ccc(F)cc3)ns2)CCN1S(=O)(=O)c1ccc(F)cc1 (stereo not drawn) [compound 59, 1-[4-fluorophenylsulfonyl]-4-[3-(4-fluorobenzyl)-1,2,4-thiadiazol-5-yl]-2-methylpiperazine] | – | 42%
COc1cccc(Cc2nsc(N3CCN(C(=O)c4ccc(F)cc4)C(C)C3)n2)c1 (stereo not drawn) [compound 123, 1-(4-fluorobenzoyl)-4-[3-(3-methoxybenzyl)-1,2,4-thiadiazol-5-yl]-2-methylpiperazine] | 140 nM | 95%
CCCCCc1ccc(C(=O)NCCN2CCN(c3nc(Cc4ccc(F)cc4)ns3)CC2)cc1 [compound 94, 4-pentyl-N-{2-[4-[3-(4-fluorobenzyl)-1,2,4-thiadiazol-5-yl]piperazin-1-yl]ethyl}benzamide] | 350 nM | 90%
COc1cccc(Cc2nsc(N3CCN(C(=O)c4ccc(Br)cc4)C(C)C3)n2)c1 (stereo not drawn) [compound 170, 1-(4-bromobenzoyl)-4-[3-(3-methoxybenzyl)-1,2,4-thiadiazol-5-yl]-2-methylpiperazine] | – | 89%
Cc1ccc(Cc2nsc(N3CCN(S(=O)(=O)c4c(C)cc(C)cc4C)C(C)C3)n2)cc1 (stereo not drawn) [compound 45, 1-[2,4,6-trimethylphenylsulfonyl]-4-[3-(4-methylbenzyl)-1,2,4-thiadiazol-5-yl]-2-methylpiperazine] | 1200 nM | 56%
O=C(Nc1ccccc1)N1CCN(c2nc(Cc3ccc(F)cc3)ns2)CC1 [compound 13, N-phenyl-4-[3-(4-fluorobenzyl)-1,2,4-thiadiazol-5-yl]piperazine-1-carboxamide] | 1230 nM | 71%
COc1ccc(S(=O)(=O)N(C)CCNc2nc(Cc3cccc(OC)c3)ns2)cc1 [compound 214, N′-[4-methoxyphenylsulfonyl]-N-[3-(3-methoxybenzyl)-1,2,4-thiadiazol-5-yl]-N′-methylethane-1,2-diamine] | 498 nM | 95%
CC1CN(c2nc(Cc3ccc(Cl)cc3)ns2)CCN1S(=O)(=O)c1cccc2ccccc12 (stereo not drawn) [compound 43, 1-[1-naphtylsulfonyl]-4-[3-(4-chlorobenzyl)-1,2,4-thiadiazol-5-yl]-2-methylpiperazine] | 890 nM | 35%

— patent publication US7960556B2, “Thiadiazole derivatives for the treatment of neuro-degenerative diseases” (NV reMYND, priority 2006, dated 2011)
